We go through 1 compound from patent US12043621B2, “Small molecule inhibitors of Interleukin-4” (Trustees of Boston University, priority 2020, dated 2024).

SMILES strings stand for the structures.

The test system of one assay is pSTAT6 in Ramos cells. Put plainly: Reduction of pSTAT6 in Ramos cells (Western blot). The following applies: Homo sapiens; Ramos cells (type I receptor complex); read-out: EC50 of pSTAT6 inhibition. The assay is classed as cell-based. Here is the method:
Ramos cells were used as cell-based model of IL-4 inhibition. Ramos cells express type I receptor complex (IL-4Rα and γc)—they were used to confirm that the lead compound D9 (compound 1 in Table 3) inhibits IL-4 signaling in this context as well.
The assay was run as described in Example 2 and 3 for THP-1 cells. Blotting was conducted for pSTAT6 and STAT6 and the percent of pSTAT6 calculated based on total STAT6. All conditions were run in triplicate. The results are depicted in FIGS. 22-23.

In the next assay the target is T1, IL-4 (Homo sapiens, UniProt P05112).
T1 construct: purchased Acros Biosystems IL4-H4218; host or cells: HEK-293
T1 sequence (P05112 25-153): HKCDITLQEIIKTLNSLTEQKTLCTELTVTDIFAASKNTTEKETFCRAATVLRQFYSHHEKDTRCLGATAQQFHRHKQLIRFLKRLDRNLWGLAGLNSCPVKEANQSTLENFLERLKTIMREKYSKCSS
The assay is described as follows: HEK-Blue IL-4/IL-13 cell-based reporter (SEAP) IL-4 inhibition assay. Conditions: Example 2, quadruplicate; read-out: EC50 of IL-4 inhibition in HEK-Blue IL-4/IL-13 cells. On the procedure: HEK-Blue IL-4/IL-13 cells were purchased from Invivogen and maintained in DMEM complete with 10% fetal bovine serum, 10 μg/ml of blasticidin and 100 μg/ml of Zeocin, 100 μg/mL Normocin, and 100 U/mL-100 μg/mL Pen-Strep. Cells used for assays were between passages 12 and 18. […] HEK-Blue IL-4/IL-13 cells were trypsinized, spun down, and resuspended in DMEM with 10% heat-inactivated FBS, and 100 U/mL-100 μg/mL Pen-Strep at a concentration of 3.125E5/mL. 160 μL of the cell suspension was added to each well of a 96 well plate, avoiding the edges of the plate and equilibrated in an incubator for 1 hour. After 2 hours, 40 μL of the small molecule/IL-4 solution was added to each well. Each measurement performed in quadruplicate. Cells were incubated for 20 hours at 37° C./5% CO2. Quanti-Blue was prepared according to manufacture and 160 μL added to each well of a 96 well plate, avoiding edges. 40 μL of cell supernatant was added to each well and then incubated for 3 hours at 37° C. The optical density was then read at 650 nm with a Molecular Devices SpectraMax M5 Microplate Reader. Data was plotted and analyzed in GraphPad Prism 8.
HEK-Blue IL-4/IL-13 cells were purchased from Invivogen and maintained in DMEM complete with 10% fetal bovine serum, 10 μg/ml of blasticidin and 100 μg/ml of Zeocin, 100 μg/mL Normocin, and 100 U/mL-100 μg/mL Pen-Strep. Cells used for assays were between passages 12 and 18. Prior to screening small molecules, the SEAP production induced by IL-4 alone was tested in the cells (FIG. 13) and determined to be 0.3 ng/mL. The EC25 for the IL-4 induced SEAP production (0.1 ng/mL final well concentration) was chosen for running small molecule inhibition assays.
For screening small molecules, 25 µL of each molecule (FIG. 9) in DMEM with 4% DMSO was added to 25 μL of 1 ng/ml IL-4 in DMEM and incubated for 2 hours at 37° C. HEK-Blue IL-4/IL-13 cells were trypsinized, spun down, and resuspended in DMEM with 10% heat-inactivated FBS, and 100 U/mL-100 μg/mL Pen-Strep at a concentration of 3.125E5/mL. 160 μL of the cell suspension was added to each well of a 96 well plate, avoiding the edges of the plate and equilibrated in an incubator for 1 hour. After 2 hours, 40 μL of the small molecule/IL-4 solution was added to each well. Each measurement was performed in […]. Cells were incubated for 20 hours at 37° C./5% CO2. Quanti-Blue was prepared according to manufacture and 160 μL added to each well of a 96 well plate, avoiding edges. 40 μL of cell supernatant was added to each well and then incubated for 3 hours at 37° C. The optical density was then read at 650 nm with a Molecular Devices SpectraMax M5 Microplate Reader. Data was plotted and analyzed in GraphPad Prism 8.
HEK-Blue IL-4/IL-13 cells used to screen analogs of compound 52 from ACS Chemical Biology paper (also referred to herein as D9). Assay was run as described in Examples 2 and 3. All compounds were screened at 10 μM, 1 μM, and 250 nM in quadruplicate. The results are depicted in FIGS. 17-21.

Assay [1] relates to STAT-6 phosphorylation in THP-1 cells. The assay is described as follows: THP-1 STAT-6/pSTAT-6 Western blot assay. The assay is classed as cell-based. Conditions: Homo sapiens, THP-1, THP-1 cells, IL-4 preincubated with compound, read-out: EC50 of reduction in pSTAT-6 levels. On the procedure: THP-1 cells were maintained in RMPI-1640 with 10% heat-inactivated fetal bovine serum and 50 μM beta-mercaptoethanol. Cells used for assays were between passages 6 and 10. 10 ng/ml IL-4 was preincubated with experimental sample (vehicle, D9 etc) for 2 hours at 37° C. Solutions were then added to 2E6 THP-1 cells in 1 mL. THP-1 cells were incubated for 30 minutes in incubator at 37° C. 5% CO2. Cells were then spun down, lysed with 200 μL ice-cold RIPA buffer complete with phosphatase and protease inhibitors. Cell lysate was incubated on ice for 30 minutes and then stored at −20° C. until western blot analysis. Undiluted cell-lysate was run SDS-PAGE followed by transfer to membrane using Biorad equipment. Membranes were incubated with 1:1000 primary antibody overnight at 4° ° C. Membranes then incubated with 1:50,000 dilution secondary for 1 hour at RT. […] The brightness/contrast was adjusted in […] and the area under the curve of each lane was quantified.
THP-1 cells were maintained in RMPI-1640 with 10% heat-inactivated fetal bovine serum and 50 μM beta-mercaptoethanol. […] The brightness/contrast was adjusted in FIJI (FIGS. 15 and 16) and the area under the curve of each lane was quantified. The ratio of phosphorylated STAT6 to STAT6 was calculated and normalized to the amount of total STAT6. The data was plotted and analyzed using Graphpad Prism 8.
For orientation: Immunoblotting shows a protein as a band on a membrane.

On to `N#Cc1c(-c2ccc(O)c(O)c2)cc(-c2ccc(F)cc2)nc1N` [Compound D9], for which the figures for the EC50 (with pSTAT6 in Ramos cells; at IL-4; in assay [1]) were 6.12 µM, 5.73 µM and 3.1 µM, respectively.
